In publication PMC9329436, “Optimization of the 4-anilinoquin(az)oline scaffold as epidermal growth factor receptor (EGFR) inhibitors for chordoma utilizing a toxicology profiling assay platform” (Scientific Reports, 2022):
Like-named read-outs stand apart in the source and are kept apart here.

What was measured:
Format in all cases: biochemical
[1] = molecular target: 320 wild-type protein kinases (Homo sapiens, UniProt P53671); conditions: singlicate
Text: (§1) Table S4. Profiling of two compounds at two concentrations against 320 wild-type protein kinases; singlicate measurement; Residual activities (% of control).

[2] = molecular target: 320 wild-type protein kinases (Homo sapiens, UniProt Q00526); conditions: singlicate
Text: as §1

[3] = molecular target: 320 wild-type protein kinases (Homo sapiens, UniProt Q9BWU1); conditions: CDK19/CycC, singlicate
Text: as §1

[4] = molecular target: 320 wild-type protein kinases (Homo sapiens, UniProt Q02763); conditions: kinase TIE2, singlicate
Text: as §1

[5] = molecular target: 320 wild-type protein kinases (Homo sapiens, UniProt P31749); conditions: singlicate
Text: as §1

[6] = molecular target: 320 wild-type protein kinases (Homo sapiens, UniProt P04049, Y340D/Y341D); conditions: kinase RAF1 Y340D/Y341D (untagged), singlicate
Text: as §1

[7] = molecular target: 320 wild-type protein kinases (Homo sapiens, UniProt P53667); conditions: singlicate
Text: as §1

[8] = molecular target: 320 wild-type protein kinases (Homo sapiens, UniProt P19784); conditions: singlicate
Text: as §1

[9] = molecular target: 320 wild-type protein kinases (Homo sapiens, UniProt Q13153); conditions: singlicate
Text: as §1

[10] = molecular target: T1, 320 wild-type protein kinases (Homo sapiens, UniProt P33981); conditions: kinase TTK, singlicate
T1 sequence (P33981 1-857): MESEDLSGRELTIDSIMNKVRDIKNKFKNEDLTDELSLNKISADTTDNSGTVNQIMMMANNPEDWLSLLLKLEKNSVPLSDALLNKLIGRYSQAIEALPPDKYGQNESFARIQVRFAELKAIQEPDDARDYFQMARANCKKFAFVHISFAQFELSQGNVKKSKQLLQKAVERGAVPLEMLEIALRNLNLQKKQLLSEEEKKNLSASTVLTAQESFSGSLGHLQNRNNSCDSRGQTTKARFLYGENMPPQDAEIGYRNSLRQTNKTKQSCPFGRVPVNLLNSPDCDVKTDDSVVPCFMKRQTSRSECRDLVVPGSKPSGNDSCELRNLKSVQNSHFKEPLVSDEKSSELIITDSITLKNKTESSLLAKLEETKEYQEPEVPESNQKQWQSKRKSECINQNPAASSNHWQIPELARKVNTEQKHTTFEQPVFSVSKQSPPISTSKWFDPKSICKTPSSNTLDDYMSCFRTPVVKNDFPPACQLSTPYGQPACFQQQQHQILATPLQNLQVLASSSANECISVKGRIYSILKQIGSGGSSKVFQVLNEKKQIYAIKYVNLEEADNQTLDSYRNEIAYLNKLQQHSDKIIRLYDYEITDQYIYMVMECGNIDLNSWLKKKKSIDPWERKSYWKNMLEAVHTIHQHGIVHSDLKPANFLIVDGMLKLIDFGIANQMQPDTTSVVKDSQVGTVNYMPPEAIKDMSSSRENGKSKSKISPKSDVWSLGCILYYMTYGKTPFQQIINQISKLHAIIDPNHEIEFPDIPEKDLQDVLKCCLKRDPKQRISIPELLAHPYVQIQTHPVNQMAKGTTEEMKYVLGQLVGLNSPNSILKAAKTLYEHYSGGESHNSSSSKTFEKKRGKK
Text: as §1

[11] = molecular target: 320 wild-type protein kinases (Homo sapiens, UniProt P17948); conditions: kinase VEGF-R1, singlicate
Text: as §1

[12] = molecular target: 320 wild-type protein kinases (Homo sapiens, UniProt P28482); conditions: singlicate
Text: as §1

[13] = molecular target: 320 wild-type protein kinases (Homo sapiens, UniProt P09769); conditions: FGR, singlicate
Text: as §1

[14] = molecular target: 320 wild-type protein kinases (Homo sapiens, UniProt P49761); conditions: singlicate
Text: as §1

[15] = molecular target: 320 wild-type protein kinases (Homo sapiens, UniProt Q86Z02); conditions: singlicate
Text: as §1

[16] = molecular target: 320 wild-type protein kinases (Homo sapiens, UniProt P07949); conditions: kinase RET, singlicate
Text: as §1

Sequence of 320 wild-type protein kinases (Homo sapiens, UniProt P49761) (P49761 whole entry): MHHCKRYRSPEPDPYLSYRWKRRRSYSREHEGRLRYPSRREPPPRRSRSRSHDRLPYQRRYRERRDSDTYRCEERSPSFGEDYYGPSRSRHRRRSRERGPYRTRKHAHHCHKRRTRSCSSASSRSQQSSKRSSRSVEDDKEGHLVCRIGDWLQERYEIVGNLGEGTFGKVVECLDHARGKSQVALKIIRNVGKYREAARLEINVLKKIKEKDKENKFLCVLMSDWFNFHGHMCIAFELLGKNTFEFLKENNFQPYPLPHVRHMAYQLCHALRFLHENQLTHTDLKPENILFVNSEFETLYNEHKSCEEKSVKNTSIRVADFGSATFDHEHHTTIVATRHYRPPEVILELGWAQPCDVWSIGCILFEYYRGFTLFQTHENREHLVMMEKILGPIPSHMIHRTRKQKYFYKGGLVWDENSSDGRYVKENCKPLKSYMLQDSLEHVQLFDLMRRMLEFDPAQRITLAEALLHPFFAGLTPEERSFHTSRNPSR
Sequence of 320 wild-type protein kinases (Homo sapiens, UniProt P17948) (P17948 27-1338): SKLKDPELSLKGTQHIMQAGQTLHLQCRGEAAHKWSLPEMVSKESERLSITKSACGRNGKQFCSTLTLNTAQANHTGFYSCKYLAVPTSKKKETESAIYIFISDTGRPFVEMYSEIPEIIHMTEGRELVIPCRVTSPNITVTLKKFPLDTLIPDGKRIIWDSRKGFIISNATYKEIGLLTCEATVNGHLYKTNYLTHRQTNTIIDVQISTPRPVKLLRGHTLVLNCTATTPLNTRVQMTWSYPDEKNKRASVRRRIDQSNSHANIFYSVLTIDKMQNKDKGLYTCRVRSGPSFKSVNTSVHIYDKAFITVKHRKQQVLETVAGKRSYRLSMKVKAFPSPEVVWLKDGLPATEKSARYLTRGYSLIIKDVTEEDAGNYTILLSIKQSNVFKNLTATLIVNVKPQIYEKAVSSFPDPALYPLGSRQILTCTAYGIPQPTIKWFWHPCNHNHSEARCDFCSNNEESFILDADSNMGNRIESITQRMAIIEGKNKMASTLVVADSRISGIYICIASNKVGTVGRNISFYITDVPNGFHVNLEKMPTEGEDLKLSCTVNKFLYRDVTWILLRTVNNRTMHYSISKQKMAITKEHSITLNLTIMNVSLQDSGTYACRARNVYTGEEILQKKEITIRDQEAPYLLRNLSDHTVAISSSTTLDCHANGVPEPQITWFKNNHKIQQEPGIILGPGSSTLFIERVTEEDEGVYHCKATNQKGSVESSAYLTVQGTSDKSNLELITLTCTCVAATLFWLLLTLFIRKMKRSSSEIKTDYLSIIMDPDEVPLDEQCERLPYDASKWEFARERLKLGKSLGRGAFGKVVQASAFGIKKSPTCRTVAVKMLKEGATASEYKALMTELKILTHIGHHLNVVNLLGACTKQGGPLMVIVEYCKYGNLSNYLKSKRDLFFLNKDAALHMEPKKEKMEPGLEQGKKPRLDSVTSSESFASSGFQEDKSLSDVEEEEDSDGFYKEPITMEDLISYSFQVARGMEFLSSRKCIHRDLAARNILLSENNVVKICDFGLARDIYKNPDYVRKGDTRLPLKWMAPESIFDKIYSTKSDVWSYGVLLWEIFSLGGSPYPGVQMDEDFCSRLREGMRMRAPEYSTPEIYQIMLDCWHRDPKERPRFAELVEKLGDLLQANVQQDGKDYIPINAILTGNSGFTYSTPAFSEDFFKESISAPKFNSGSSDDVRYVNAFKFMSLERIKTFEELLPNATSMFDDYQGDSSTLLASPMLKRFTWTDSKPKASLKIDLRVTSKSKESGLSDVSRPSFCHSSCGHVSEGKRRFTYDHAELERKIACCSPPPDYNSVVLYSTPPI
Sequence of 320 wild-type protein kinases (Homo sapiens, UniProt Q00526) (Q00526 whole entry): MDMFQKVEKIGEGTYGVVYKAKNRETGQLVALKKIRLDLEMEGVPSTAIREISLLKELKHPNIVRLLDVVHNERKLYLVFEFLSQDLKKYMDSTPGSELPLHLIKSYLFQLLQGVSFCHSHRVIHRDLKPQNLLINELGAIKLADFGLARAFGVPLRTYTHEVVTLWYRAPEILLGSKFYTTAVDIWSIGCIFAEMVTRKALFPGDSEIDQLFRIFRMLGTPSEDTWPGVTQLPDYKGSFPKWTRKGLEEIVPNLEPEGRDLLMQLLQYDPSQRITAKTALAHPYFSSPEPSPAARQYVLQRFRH
Sequence of 320 wild-type protein kinases (Homo sapiens, UniProt P31749) (P31749 whole entry): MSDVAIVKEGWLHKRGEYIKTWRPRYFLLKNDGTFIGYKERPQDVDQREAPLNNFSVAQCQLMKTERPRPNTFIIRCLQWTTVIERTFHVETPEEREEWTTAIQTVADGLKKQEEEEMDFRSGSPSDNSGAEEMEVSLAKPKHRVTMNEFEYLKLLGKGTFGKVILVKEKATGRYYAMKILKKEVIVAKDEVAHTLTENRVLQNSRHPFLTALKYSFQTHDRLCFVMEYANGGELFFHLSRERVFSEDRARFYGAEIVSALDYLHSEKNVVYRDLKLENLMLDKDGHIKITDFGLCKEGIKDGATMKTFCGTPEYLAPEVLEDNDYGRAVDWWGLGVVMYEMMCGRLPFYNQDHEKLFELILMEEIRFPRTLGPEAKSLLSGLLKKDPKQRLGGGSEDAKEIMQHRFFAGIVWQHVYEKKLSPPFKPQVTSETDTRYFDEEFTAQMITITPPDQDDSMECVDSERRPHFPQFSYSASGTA
Sequence of 320 wild-type protein kinases (Homo sapiens, UniProt P09769) (P09769 whole entry): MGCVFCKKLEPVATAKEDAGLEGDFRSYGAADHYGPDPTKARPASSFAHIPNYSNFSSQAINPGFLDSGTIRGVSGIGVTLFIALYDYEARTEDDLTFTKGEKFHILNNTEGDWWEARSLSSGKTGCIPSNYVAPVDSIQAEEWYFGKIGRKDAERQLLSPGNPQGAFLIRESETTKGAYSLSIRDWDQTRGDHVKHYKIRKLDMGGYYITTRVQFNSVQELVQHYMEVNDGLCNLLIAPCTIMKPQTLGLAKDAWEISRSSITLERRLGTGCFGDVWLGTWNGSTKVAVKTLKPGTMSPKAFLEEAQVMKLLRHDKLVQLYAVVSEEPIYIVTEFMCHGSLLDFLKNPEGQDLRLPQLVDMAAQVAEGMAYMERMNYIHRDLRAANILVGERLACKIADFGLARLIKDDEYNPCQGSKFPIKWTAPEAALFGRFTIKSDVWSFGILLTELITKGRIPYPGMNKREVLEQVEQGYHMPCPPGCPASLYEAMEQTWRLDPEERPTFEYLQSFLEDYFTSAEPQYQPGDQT
Sequence of 320 wild-type protein kinases (Homo sapiens, UniProt Q13153) (Q13153 whole entry): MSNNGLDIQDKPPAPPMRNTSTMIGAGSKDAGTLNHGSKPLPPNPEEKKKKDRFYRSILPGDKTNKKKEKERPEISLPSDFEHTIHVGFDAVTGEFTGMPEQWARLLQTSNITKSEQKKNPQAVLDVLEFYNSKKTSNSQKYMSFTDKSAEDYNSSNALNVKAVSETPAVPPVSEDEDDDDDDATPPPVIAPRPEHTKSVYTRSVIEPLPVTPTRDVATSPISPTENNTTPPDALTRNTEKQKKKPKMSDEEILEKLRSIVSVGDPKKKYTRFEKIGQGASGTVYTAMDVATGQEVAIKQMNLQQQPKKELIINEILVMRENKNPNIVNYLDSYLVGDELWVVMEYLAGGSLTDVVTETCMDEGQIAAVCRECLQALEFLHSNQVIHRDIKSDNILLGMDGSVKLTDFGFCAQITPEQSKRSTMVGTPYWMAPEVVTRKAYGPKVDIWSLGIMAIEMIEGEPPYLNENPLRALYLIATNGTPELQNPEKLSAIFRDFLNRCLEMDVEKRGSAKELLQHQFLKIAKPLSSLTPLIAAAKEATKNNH
Sequence of 320 wild-type protein kinases (Homo sapiens, UniProt P28482) (P28482 whole entry): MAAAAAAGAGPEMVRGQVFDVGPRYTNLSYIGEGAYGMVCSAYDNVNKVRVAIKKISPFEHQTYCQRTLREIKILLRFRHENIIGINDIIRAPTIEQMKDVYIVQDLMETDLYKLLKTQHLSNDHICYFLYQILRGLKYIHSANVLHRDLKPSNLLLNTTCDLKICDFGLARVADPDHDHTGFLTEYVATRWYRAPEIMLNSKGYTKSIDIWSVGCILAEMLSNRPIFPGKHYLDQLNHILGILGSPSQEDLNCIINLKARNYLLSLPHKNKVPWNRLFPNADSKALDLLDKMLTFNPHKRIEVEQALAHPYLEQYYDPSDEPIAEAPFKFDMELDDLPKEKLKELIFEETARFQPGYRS
Sequence of 320 wild-type protein kinases (Homo sapiens, UniProt P19784) (P19784 whole entry): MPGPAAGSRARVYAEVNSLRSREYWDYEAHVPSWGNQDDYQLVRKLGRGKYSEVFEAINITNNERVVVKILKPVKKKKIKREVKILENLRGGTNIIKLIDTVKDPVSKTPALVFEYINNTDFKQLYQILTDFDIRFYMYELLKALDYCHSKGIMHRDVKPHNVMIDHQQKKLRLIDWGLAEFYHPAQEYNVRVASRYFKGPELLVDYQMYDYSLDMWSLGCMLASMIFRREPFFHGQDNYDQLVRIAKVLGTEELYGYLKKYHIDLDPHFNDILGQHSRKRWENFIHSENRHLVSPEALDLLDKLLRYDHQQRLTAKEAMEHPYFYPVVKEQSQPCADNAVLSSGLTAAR
Sequence of 320 wild-type protein kinases (Homo sapiens, UniProt P53667) (P53667 whole entry): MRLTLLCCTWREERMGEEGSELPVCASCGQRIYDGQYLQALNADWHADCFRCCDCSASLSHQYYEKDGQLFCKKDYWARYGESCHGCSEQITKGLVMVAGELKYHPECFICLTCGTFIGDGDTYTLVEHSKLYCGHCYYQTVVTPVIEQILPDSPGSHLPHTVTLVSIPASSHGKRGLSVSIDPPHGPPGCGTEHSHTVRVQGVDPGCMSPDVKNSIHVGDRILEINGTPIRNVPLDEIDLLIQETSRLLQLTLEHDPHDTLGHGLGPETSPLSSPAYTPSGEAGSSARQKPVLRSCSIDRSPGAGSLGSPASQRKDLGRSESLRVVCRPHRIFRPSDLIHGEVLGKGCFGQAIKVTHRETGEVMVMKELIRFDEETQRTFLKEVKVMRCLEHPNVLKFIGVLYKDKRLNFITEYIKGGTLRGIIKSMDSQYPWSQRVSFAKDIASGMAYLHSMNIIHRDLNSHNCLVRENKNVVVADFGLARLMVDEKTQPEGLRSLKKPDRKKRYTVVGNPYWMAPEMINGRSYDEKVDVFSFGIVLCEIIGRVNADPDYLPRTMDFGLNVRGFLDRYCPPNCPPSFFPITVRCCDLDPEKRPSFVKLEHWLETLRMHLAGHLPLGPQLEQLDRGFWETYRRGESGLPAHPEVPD

SMILES	Residual activity ([1]; LIMK2, 1.0E-06 M)	Residual activity ([1]; LIMK2, 1.0E-07 M)	Residual activity ([2]; CDK3/CycC, 1.0E-06 M)	Residual activity ([2]; CDK3/CycC, 1.0E-07 M)	Residual activity ([2]; CDK3/CycE1, 1.0E-06 M)	Residual activity ([2]; CDK3/CycE1, 1.0E-07 M)	Residual activity ([3]; 1.0E-06 M)	Residual activity ([3]; 1.0E-07 M)	Residual activity, TIE2 ([4]; assay conc. 1.0E-06 M)	Residual activity, TIE2 ([4]; assay conc. 1.0E-07 M)	Residual activity ([5]; AKT1 aa106-480, 1.0E-06 M)	Residual activity ([5]; AKT1 aa106-480, 1.0E-07 M)	Residual activity, RAF1 Y340D/Y341D (untagged) ([6]; assay conc. 1.0E-06 M)	Residual activity, RAF1 Y340D/Y341D (untagged) ([6]; assay conc. 1.0E-07 M)	Residual activity ([7]; LIMK1, 1.0E-06 M)	Residual activity ([7]; LIMK1, 1.0E-07 M)	Residual activity ([8]; CK2-alpha2, 1.0E-06 M)	Residual activity ([8]; CK2-alpha2, 1.0E-07 M)	Residual activity ([9]; PAK1, 1.0E-06 M)	Residual activity ([9]; PAK1, 1.0E-07 M)	further results
C#Cc1cc(Nc2ncnc3cc(OC)c(OC)cc23)ccc1Cl [Compound 45]	89 % of control	94 % of control	86 % of control	92 % of control	102 % of control	117 % of control	97 % of control	104 % of control	82 % of control	111 % of control	101 % of control	100 % of control	88 % of control	83 % of control	90 % of control	103 % of control	111 % of control	118 % of control	95 % of control	91 % of control	Residual activity, TTK ([10]; assay conc. 1.0E-06 M): 83 % of control; Residual activity, TTK ([10]; assay conc. 1.0E-07 M): 97 % of control; Residual activity, VEGF-R1 ([11]; assay conc. 1.0E-06 M): 85 % of control; Residual activity, VEGF-R1 ([11]; assay conc. 1.0E-07 M): 119 % of control; Residual activity ([12]; ERK2, 1.0E-06 M): 87 % of control; Residual activity ([12]; ERK2, 1.0E-07 M): 94 % of control; Residual activity ([13]; 1.0E-06 M): 94 % of control; Residual activity ([13]; 1.0E-07 M): 125 % of control; Residual activity ([14]; CLK3, 1.0E-06 M): 133 % of control; Residual activity ([14]; CLK3, 1.0E-07 M): 127 % of control; Residual activity ([15]; HIPK1, 1.0E-06 M): 80 % of control; Residual activity ([15]; HIPK1, 1.0E-07 M): 79 % of control; Residual activity, RET ([16]; assay conc. 1.0E-06 M): 51 % of control; Residual activity, RET ([16]; assay conc. 1.0E-07 M): 101 % of control
C#Cc1cc(Nc2ncnc3cc(I)ccc23)ccc1Cl [Compound 41]	100 % of control	92 % of control	87 % of control	90 % of control	96 % of control	115 % of control	93 % of control	91 % of control	87 % of control	84 % of control	94 % of control	96 % of control	99 % of control	95 % of control	86 % of control	101 % of control	115 % of control	115 % of control	92 % of control	87 % of control	Residual activity, TTK ([10]; assay conc. 1.0E-06 M): 81 % of control; Residual activity, TTK ([10]; assay conc. 1.0E-07 M): 100 % of control; Residual activity, VEGF-R1 ([11]; assay conc. 1.0E-06 M): 113 % of control; Residual activity, VEGF-R1 ([11]; assay conc. 1.0E-07 M): 92 % of control; Residual activity ([12]; ERK2, 1.0E-06 M): 86 % of control; Residual activity ([12]; ERK2, 1.0E-07 M): 90 % of control; Residual activity ([13]; 1.0E-06 M): 114 % of control; Residual activity ([13]; 1.0E-07 M): 129 % of control; Residual activity ([14]; CLK3, 1.0E-06 M): 128 % of control; Residual activity ([14]; CLK3, 1.0E-07 M): 146 % of control; Residual activity ([15]; HIPK1, 1.0E-06 M): 87 % of control; Residual activity ([15]; HIPK1, 1.0E-07 M): 98 % of control; Residual activity, RET ([16]; assay conc. 1.0E-06 M): 85 % of control; Residual activity, RET ([16]; assay conc. 1.0E-07 M): 102 % of control
